Measurements: patent publication US10988496B2, “Platinum (IV) complex” (Nippon Kayaku Kabushiki Kaisha, priority 2015, dated 2021)
pIC50: −log10 of the molar value.

Assays:
Assay type in all cases: cell-based
[1] = system: gastric cancer cells KATO III; assay: In vitro antitumor assay (Methylene Blue staining), KATO III; details: 72 hours culture with compound; read-out: Cell line IC50 KATO III
Description: (§1) Gastric cancer and pancreatic cancer cell lines were respectively inoculated on a 96-well plate. Gastric cancer cells KATO III were inoculated at a rate of 1×10^4 cells/well gastric cancer cells MKN-1 were inoculated at a rate of 5×10^5 cells/well, gastric cancer cells MKN-45 were inoculated at a rate of 1×10^4 cells/well, gastric cancer cells MKN-74 were inoculated at a rate of 1×10^4 cells/well, pancreatic cancer cells AsPC-1 were inoculated at a rate of […], pancreatic cancer cells BxPC-3 were inoculated at a rate of 5×10^5 cells/well, pancreatic cancer cells DAN-G were inoculated at a rate of 5×10^5 cells/well, and pancreatic cancer cells SUIT-2 were inoculated at a rate of 5×10^5 cells/well. After culturing the cells for 24 hours, each of the Example compounds or each of the Comparative Example compounds was added to the cells to obtain a final concentration of from 0.0244 μmol/L to 100 μmol/L at a common ratio of 4. Three technical replicates were used. Wells to which no drug was added were prepared as control, and wells to which cells and drugs were not added were prepared as blanks. After the cells were cultured for 72 hours, the culture fluid was removed, the cells were fixed with methanol, and then the cells were stained using a Methylene Blue stain solution. After excess Methylene blue stain solution was washed off, 200 μL of 0.1% hydrochloric acid was added to each well, and the dye was extracted. The light absorbance at 660 nm was measured using a microplate reader, and the cell proliferation inhibitory activity (GI %) was calculated from the light absorbance thus obtained by the following formula. GIXY %=(1−(AXY−B)/(C−B))×100
(§2) Here, GIXY % represents the cell prolj feration-inhibitory activity when the concentration of compound. X is Y μM; AXY represents the average light absorbance of the well to which compound X has been added at Y μM; B represents the light absorbance of a blank well; and C represents the tight absorbance of a control well.
(§3) The GIXY % was determined for various compound concentrations, and a proliferation-inhibition curve was plotted from the concentration and the cell proliferation-inhibitory activity.

[2] = system: pancreatic cancer cells BxPC-3; assay: In vitro antitumor assay (Methylene Blue staining), BxPC-3; details: 72 hours culture with compound; read-out: Cell line IC50 BxPC-3
Description: as §1, §2, §3

[3] = system: gastric cancer cells MKN-45; assay: In vitro antitumor assay (Methylene Blue staining), MKN-45; details: 72 hours culture with compound; read-out: Cell line IC50 MKN-45
Description: as §1, §2, §3

[4] = system: pancreatic cancer cells DAN-G; assay: In vitro antitumor assay (Methylene Blue staining), DAN-G; details: 72 hours culture with compound; read-out: Cell line IC50 DAN-G
Description: as §1, §2, §3

[5] = system: gastric cancer cells MKN-74; assay: In vitro antitumor assay (Methylene Blue staining), MKN-74; details: 72 hours culture with compound; read-out: Cell line IC50 MKN-74
Description: as §1, §2, §3

[6] = system: pancreatic cancer cells SUIT-2; assay: In vitro antitumor assay (Methylene Blue staining), SUIT-2; details: 72 hours culture with compound; read-out: Cell line IC50 SUIT-2
Description: as §1, §2, §3

[7] = system: pancreatic cancer cells AsPC-1; assay: In vitro antitumor assay (Methylene Blue staining), AsPC-1; details: 72 hours culture with compound; read-out: Cell line IC50 AsPC-1
Description: as §1, §2, §3

[8] = system: gastric cancer cells MKN-1; assay: In vitro antitumor assay (Methylene Blue staining), MKN-1; details: 72 hours culture with compound; read-out: Cell line IC50 MKN-1
Description: as §1, §2, §3

Compound | pIC50 [1] | pIC50 [2] | pIC50 [3] | pIC50 [4] | pIC50 [5] | pIC50 [6] | pIC50 [7] | pIC50 [8]
NC1CCCCC1N.[Cl][Pt][Cl] (stereo not shown) [Pt(dach)Cl2] | 4.86 | 5.47 | 6.30 | 5.07 | 4.65 | 5.68 | 4.83 | 5.43
N[C@@H]1CCCC[C@H]1N.O=C1[O][Pt]([Cl])([O]CCO)[O]C1=O (mixture of isomers) [Comparative Example 2, trans,cis,cis-[PtCl (OCH2CH2OH) (R,R-dach) (ox)]] | 4.37 | 5.24 | 5.72 | 5.25 | 4.24 | 5.21 | 5.01 | 4.97
N[C@@H]1CCCC[C@H]1N.O=C1[O][Pt]([OH])([Br])[O]C1=O (mixture of isomers) [Example 2, trans,cis,cis-[PtBr(OH) (R,R-dach) (ox)]] | – | – | – | – | – | 5.82 | – | 5.57
N[C@@H]1CCCC[C@H]1N.O=C([O-])C(=O)[O-].[Pt+2] [Example 1-OHP, oxaliplatin] | 5.04 | 6.10 | 7.00 | 5.96 | 5.07 | – | 5.80 | 6.30
N[C@@H]1CCCC[C@H]1N.O=C1[O][Pt]([OH])([OH])[O]C(=O)C12CCC2 (mixture of isomers) [Comparative Example 6, trans,cis,cis-[Pt(OH)2(R,R-dach) (cbdc)]] | – | – | – | < 4.00 | < 4.00 | 4.10 | – | < 4.00
N[C@@H]1CCCC[C@H]1N.O=C(CCc1ccccc1)[O][Pt]1([O]C(=O)CCc2ccccc2)[O]C(=O)C(=O)[O]1 [Comparative Example 4, trans,cis,cis-[Pt(OCOCH2CH2C6H5)2 (R,R-dach)(ox)]] | – | – | – | 5.17 | 4.56 | 6.00 | – | 5.04
CC(=O)[O][Pt]1([OH])[O]C(=O)C(=O)[O]1.N[C@@H]1CCCC[C@H]1N (mixture of isomers) [Comparative Example 1, trans,cis,cis-[Pt(OH)(OAc)(R,R-dach) (ox)]] | 4.25 | 4.35 | 5.21 | 4.44 | < 4.00 | 4.58 | 4.20 | 4.34
N[C@@H]1CCCC[C@H]1N.O=C([O-])C(=O)[O-].[Cl-].[OH-].[Pt+4] (mixture of isomers) [Example 1, trans,cis,cis-[PtCl(OH) (R,R-dach) (ox)]] | 4.86 | 5.92 | 6.52 | 6.00 | 4.80 | 6.05 | 5.51 | 5.72
N[C@@H]1CCCC[C@H]1N.O=C1[O][Pt]([OH])([Cl])[O]C(=O)C12CCC2 (mixture of isomers) [Comparative Example 5, trans,cis,cis-[PtCl(OH) (R,R-dach) (cbdc)]] | – | – | – | 5.47 | 4.54 | 5.48 | – | 5.35
N[C@@H]1CCCC[C@H]1N.[OH][Pt]([Cl])([Cl])[Cl] (mixture of isomers) [Example 3, trans,cis,cis-[PtCl(OH) (R,R-dach) (Cl)2]] | – | – | – | 5.07 | 4.77 | 6.05 | – | 5.59
N[C@@H]1CCCC[C@H]1N.O=C1[O][Pt]([OH])([OH])[O]C1=O (mixture of isomers) [Comparative Example 3, trans,cis,cis-[Pt(OH)2 (R,R-dach) (ox)]] | – | – | – | < 4.00 | < 4.00 | 4.41 | – | < 4.00
